From ChEMBL document CHEMBL4028858, “Structural Biology-Inspired Discovery of Novel KRAS-PDEδ Inhibitors” (J Med Chem, 2017)
In brackets after ≈: the same amount, converted by molar mass. Blank lines part the entries; values can stand above or below the compound they belong to. Activity calls are given as the source filed them. The rule behind the calls is not given here.

Columns and labels:
CAPAN-1 [1] = assay: Antiproliferative activity against KRAS-dependent human Capan1 cells after 48 hrs by CCK8 assay
[2] = molecular target: T1, Retinal rod rhodopsin-sensitive cGMP 3',5'-cyclic phosphodiesterase subunit delta (Homo sapiens, UniProt O43924)
Description: Inhibition of Atrovastatin-PEG3-FITC binding to PDEdelta (unknown origin) incubated for 60 mins by fluorescence anisotropy assay

[3] = Aqueous solubility of the compound at 5 mg/ml measured after 24 hrs by HPLC method; assay type: physicochemical; conditions: water (aqueous)
CAPAN-1 [4] = assay: Induction of apoptosis in KRAS-dependent human Capan1 cells at 25 uM incubated for 48 hrs by Annexin-V FITC/propidium iodide staining-based flow cytometry relative to control; assay type: functional
CAPAN-1 [5] = assay: Induction of apoptosis in KRAS-dependent human Capan1 cells at 10 uM incubated for 48 hrs by Annexin-V FITC/propidium iodide staining-based flow cytometry relative to control; assay type: functional
[6] = molecular target: RAC-alpha serine/threonine-protein kinase (Homo sapiens) (UniProt P31749); assay: […] of EGF-induced AKT phosphorylation at Ser473 in human Capan1 cells at 25 uM after 1 hr by Western blot method; assay type: cell-based
Homo sapiens = organism: Homo sapiens; assay: Effect on EGF-induced ERK phosphorylation at Thr202/Tyr204 in human Capan1 cells at 25 uM after 1 hr by Western blot method
CAPAN-1 [7] = assay: Induction of apoptosis in KRAS-dependent human Capan1 cells incubated for 48 hrs by Annexin-V FITC/propidium iodide staining-based flow cytometry; assay type: functional, cell-based
CAPAN-1 [8] = assay: Downregulation of PDEdelta protein expression in KRAS-dependent human Capan1 cells at 10 uM incubated for 2 hrs by immunofluorescence staining-based method; assay type: functional, cell-based
[9] = molecular target: T1, Retinal rod rhodopsin-sensitive cGMP 3',5'-cyclic phosphodiesterase subunit delta; conditions: 10 uM
Description: Inhibition of PDEdelta in KRAS-dependent human Capan1 cells assessed as downregulation of EGF-induced AKT phosphorylation at Ser473 at 10 uM incubated for >5 hrs by Western blot method

[10] = molecular target: T1, Retinal rod rhodopsin-sensitive cGMP 3',5'-cyclic phosphodiesterase subunit delta; conditions: 10 uM; remark: listed apart in the source
Description: Inhibition of PDEdelta in KRAS-dependent human Capan1 cells assessed as downregulation of EGF-induced ERK phosphorylation at Thr202/Thr204 at 10 uM incubated for >5 hrs by Western blot method

[11] = molecular target: T1, Retinal rod rhodopsin-sensitive cGMP 3',5'-cyclic phosphodiesterase subunit delta; conditions: 10 uM; remark: listed apart in the source
Description: Inhibition of PDEdelta in KRAS-dependent human Capan1 cells assessed as increase in endogenous RAS distribution to endomembranes at 10 uM incubated for 2 hrs by immunofluorescence staining based method

CAPAN-1 [12] = assay: Antiproliferative activity against KRAS-dependent human Capan1 cells at 100 uM after 48 hrs by CCK8 assay relative to control; assay type: functional
CAPAN-1 [13] = assay: Induction of apoptosis in KRAS-dependent human Capan1 cells at 50 uM incubated for 48 hrs by Annexin-V FITC/propidium iodide staining-based flow cytometry relative to control; assay type: functional
CAPAN-1 [14] = assay: Downregulation of PDEdelta protein expression in KRAS-dependent human Capan1 cells at 25 uM incubated for 2 hrs by immunofluorescence staining-based method; assay type: functional, cell-based
[15] = molecular target: T1, Retinal rod rhodopsin-sensitive cGMP 3',5'-cyclic phosphodiesterase subunit delta; conditions: 1 mM
Description: Binding affinity to PDEdelta (unknown origin) assessed as change in melting temperature at 1 mM by circular dichroism spectroscopy

CAPAN-1 [16] = assay: Potency index, ratio of deltazinone IC50 to test compound IC50 for KRAS-dependent human Capan1 cells; assay type: functional

T1 sequence (O43924 whole entry): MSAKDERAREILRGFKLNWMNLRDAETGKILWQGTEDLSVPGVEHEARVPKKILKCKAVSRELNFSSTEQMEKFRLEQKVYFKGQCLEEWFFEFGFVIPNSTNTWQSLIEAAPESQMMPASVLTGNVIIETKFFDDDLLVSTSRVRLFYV
Chain of RAC-alpha serine/threonine-protein kinase (Homo sapiens) (P31749 whole entry): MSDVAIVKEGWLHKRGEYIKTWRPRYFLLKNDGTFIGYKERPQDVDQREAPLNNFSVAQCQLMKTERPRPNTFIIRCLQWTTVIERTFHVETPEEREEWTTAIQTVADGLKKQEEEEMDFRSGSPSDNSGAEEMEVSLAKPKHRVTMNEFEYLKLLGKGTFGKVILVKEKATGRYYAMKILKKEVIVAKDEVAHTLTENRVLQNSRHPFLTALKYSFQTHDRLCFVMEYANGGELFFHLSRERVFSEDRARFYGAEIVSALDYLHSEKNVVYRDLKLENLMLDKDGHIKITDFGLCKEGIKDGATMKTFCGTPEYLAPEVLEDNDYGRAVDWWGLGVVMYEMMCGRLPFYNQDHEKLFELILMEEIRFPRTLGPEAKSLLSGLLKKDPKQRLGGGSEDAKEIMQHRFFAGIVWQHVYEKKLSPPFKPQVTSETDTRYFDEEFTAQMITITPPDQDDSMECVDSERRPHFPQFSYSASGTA

Kd [2]: 0.037 µM
Structure (SMILES): Cc1ccc(-n2nc3c(=O)n(CCC(=O)N4CCC(N5C(=O)c6ccccc6NC5c5ccccc5F)CC4)nc(C)c3c2C)cc1 (single isomer, unassigned; (-))
IC50 (CAPAN-1 [1]; capan-1): 25.6 µM

solubility at 24 h [3]: 268 µM (≈ 170 µg/mL)
Kd [2]: 0.002 µM
Structure (SMILES): Cc1ccc(-n2nc3c(=O)n(CCC(=O)N4CCC(N5C(=O)c6ccccc6NC5c5ccccc5F)CC4)nc(C)c3c2C)cc1 (stereo in doubt; 3b) [listing 1 of 2 here]
IC50 (CAPAN-1 [1]; capan-1): 18.6 µM
Activity (CAPAN-1 [4]): 50%

Activity [6]: Active
Structure (SMILES): Cc1ccc(-n2nc3c(=O)n(CCCC(=O)NCC(C)c4ccccc4)nc(C)c3c2C)cc1 (stereo not given)
IC50 (CAPAN-1 [1]; Homo sapiens, CAPAN-1, 48 h): 56.9 µM
Activity (CAPAN-1 [5]): 10%
Activity (Homo sapiens): inactive

inhibition [9]: Active
inhibition [10]: Active
inhibition [11]: Active
Structure (SMILES): Cc1ccc(-n2nc3c(=O)n(CCC(=O)N4CCC(N5C(=O)c6ccccc6NC5c5ccccc5F)CC4)nc(C)c3c2C)cc1 (stereo in doubt; 3b) [listing 2 of 2 here]
Activity (CAPAN-1 [7]): Dose-dependent effect
Activity (CAPAN-1 [8]): Active

solubility at 24 h [3]: 70.6 µM (≈ 41.9 µg/mL)
Structure (SMILES): O=C1c2ccccc2NC(c2ccccc2F)N1CCN1CCC(N2C(=O)c3ccccc3NC2c2ccccc2F)CC1 (stereo not given)
Activity (CAPAN-1 [12]): 48.9%

Structure (SMILES): O=C1c2ccccc2N[C@@H](c2ccccc2F)N1CCN1CCC(N2C(=O)c3ccccc3N[C@H]2c2ccccc2F)CC1
Activity (CAPAN-1 [4]): 23.6%
Activity (CAPAN-1 [13]): 39.3%
Activity (CAPAN-1 [14]): Active

solubility at 24 h [3]: 403 µM (≈ 250 µg/mL)
Structure (SMILES): Cc1ccc(-n2nc3c(=O)n(CCCN4CCC(N5C(=O)c6ccccc6NC5c5ccccc5F)CC4)nc(C)c3c2C)cc1 (stereo not given)
IC50 (CAPAN-1 [1]; Homo sapiens, CAPAN-1, 48 h): 27.6 µM
Activity (CAPAN-1 [4]): 50%
Activity (CAPAN-1 [7]): Dose-dependent effect

Structure (SMILES): O=C1c2ccccc2N[C@H](c2ccccc2F)N1c1ccccc1
ΔTm [15]: 5.75 °C

solubility at 24 h [3]: 8.9 µM (≈ 4.92 µg/mL)
Structure (SMILES): O=C1c2ccccc2NC(c2ccccc2F)N1CCCCCN1C(=O)c2ccccc2NC1c1ccccc1F (stereo not given)

Structure (SMILES): O=C1c2ccccc2N[C@@H](c2ccccc2F)N1c1ccccc1
ΔTm [15]: 14 °C

Kd [2]: 0.0006 µM
Structure (SMILES): Cc1ccc(-n2nc3c(=O)n(CCC(=O)N4CCC(N5C(=O)c6ccccc6NC5c5ccccc5F)CC4)nc(C)c3c2C)cc1 (stereo in doubt; (+)-3b)
IC50 (CAPAN-1 [1]; capan-1): 12.4 µM
Ratio IC50 (CAPAN-1 [16]): 4

solubility at 24 h [3]: 0.37 µM (≈ 0.119 µg/mL)
Structure (SMILES): O=C1c2cccc3cccc(c23)N1c1ccc(-c2ccccc2)cc1

solubility at 24 h [3]: 3.2 µM (≈ 1.93 µg/mL)
Structure (SMILES): O=C1c2ccccc2NC(c2ccccc2F)N1CCOc1ccc(N2C(=O)c3ccccc3NC2c2ccccc2F)cc1 (stereo not given)

solubility at 24 h [3]: 30.9 µM (≈ 17.9 µg/mL)
Structure (SMILES): O=C1c2ccccc2NC(c2ccccc2F)N1CCCCCCCN1C(=O)c2ccccc2NC1c1ccccc1F (stereo not given)

solubility at 24 h [3]: 14 µM (≈ 7.93 µg/mL)
Structure (SMILES): O=C1c2ccccc2NC(c2ccccc2F)N1CCCCCCN1C(=O)c2ccccc2NC1c1ccccc1F (stereo not given)

Structure (SMILES): O=C1c2ccccc2NC(c2ccccc2F)N1c1ccccc1 (racemic)
ΔTm [15]: 12.7 °C
